# From US11965041B2, “N-methylated cyclic peptides and their prodrugs” (TECHNISCHE UNIVERSITAET MUENCHEN, priority 2017, dated 2024)
# Numbered stars: 1 amine (or outer) side, 2 acyl side, 3 side chain; on linkers, the order of the positions; unused ones are H or OH. Square brackets hold non-standard residues; d marks the D form. Peptide text beside a SMILES is read from it. X1 = CCCCCCOC(=O)N=C(NCCC[C@@H](N[*:1])C(=O)[*:2])NC(=O)OCCCCCC; NMeV = CN[C@H](C(=O)O)C(C)C; dNMeA = CN[C@H](C)C(=O)O
# Key:
# [1] = Caco-2 permeability study (Examples 1, 2 and 4, Table 3); format: in vitro ADME, human; details: Caco-2, unit inferred; read-out: Caco-2 A-to-B Papp (converted)
# Experimental: The culture growth medium consisted of DMEM supplemented with 10% heat-inactivated FBS, 1% MEM-NEAA, 2 mM 1-glutamine, 1 mM sodium pyruvate, 50,000 units Penicillin G Sodium and 50 mg Streptomycin Sulfate (Biological Industries). The medium was replaced every other day.
# Cells (passage 55-60) were seeded at density of 25×10^5 cells/cm^2 on untreated culture inserts of polycarbonate membrane with 0.4 μm pores and surface area of 1.1 cm^2. Culture inserts containing Caco-2 monolayer were placed in 12 mm transwell plates (Corning). Culture medium was replaced every other day. Transepithelial Electrical Resistance (TEER) values were measured by Millicell ERS-2 System (Millipore) a week after seeding up to experiment day (21-23 days) to ensure proliferation and differentiation of the cells. When the cells were fully differentiated and TEER values became stable (200-500 Ω·cm^2). The TEER values were compared to control inserts containing only the medium.
# The experiment was initiated by replacing the medium from both sides by apical (600 μl) and basolateral (1500 μl) buffers, both warmed to 37° C. The Cells were incubated with the buffers solutions for 30 min at 37° C. on a shaker (100 cycles/min). The apical buffer was replaced by apical buffer containing 10 μg/ml of the cyclic peptides of the invention. 50 μl samples were taken from the apical side immediately at the beginning of the experiment, resulting in 550 μl apical volume during the experiment.
# Permeability Coefficient (Papp) for each compound was calculated from the linear plot of drug accumulated versus time, using the following equation:
# Where dq/dt is steady state appearance rate of the compound on the receiver side, Co is the initial concentration of the drug on the donor side, and A is the exposed tissue surface area (1.1 cm^2).
# Transport studies were performed through the Caco-2 monolayer mounted in an Ussing-type chamber set-up with continuous trans-epithelial electrical resistance (TEER) measurements to assure TEER between 800 and 1200 Sr cm^2. HBSS supplemented with 10 mM MES and adjusted to pH 6.5 were used as transport medium in the donor compartment and pH 7.4 in the acceptor compartment. The donor solution contained the test compound.
# Permeability mechanism of compounds is studied by evaluating the Papp of a compound from the apical to the basolateral (A-to-B) membrane and its Papp from the basolateral to the apical membrane (B-to-A). The A-to-B assay simulates passive and transporter-mediated permeability. The B-to-A assay is essential complementary experiment indicative of the activity of P-gp. The ratio of the A-to-B and B-to A Papps (efflux ratio) is calculated to determine the permeability mechanism.
# [2] = Metabolic stability in rat plasma; format: in vitro ADME; details: 37° C., up to 90 minutes
# Experimental: The enzymatic reactions were performed as follows: 2 mM stock solutions of the tested compounds were diluted with serum or purified brush border membrane vesicles (BBMVs) solution to a final concentration of 0.5 mM. During incubation at 37° C. samples were taken for a period of 90 minutes. The enzymatic reaction was stopped by adding 1:1 v/v of ice cold acetonitrile and centrifuge (4000 g, 10 min) before analysis. Preparation of BBMVs: The BBMVs was prepared from combined duodenum, jejunum, and upper ileum (male Wistar rats) by a Ca^++ precipitation method. Purification of the BBMVs was assayed using GGT, LAP and alkaline phosphatase as membrane enzyme markers
# Peptides 12 and 12p were subjected to rat plasma and followed their degradation. Rat plasma is known to be rich with esterases.
# [3] = Pooled Human Liver Microsome assay; format: in vitro ADME
# From the text: Peptide 12 P was subjected to additional in vitro assay to evaluate the involvement of liver metabolism using the Pooled Human Liver Microsome assay. Liver microsomes are subcellular particles derived from the endoplasmic reticulum of hepatic cells. These microsomes are a rich source of drug metabolizing enzymes, including cytochrome P-450. Microsome pools from various sources are useful in the study of xenobiotic metabolism and drug interactions. […] The presence of ketokonazole inhibits the metabolism by the liver enzymes in some degree. However, Incubating peptide 12P with self-assembling pro-nano lipospheres (PNL), led to much better inhibition of cytochromes P-450.
# CYP3A4 = assay: Enzymatic inhibition study in isolated rat CYP3A4 microsomes; format: in vitro ADME; details: rat, pooled rat CYP3A4 microsomes, pH 7.4; with ketoconazole; 60 min; read-out: concentration remaining after incubation, with ketoconazole
# rat CYP3A4 microsomes = assay: as above; format: in vitro ADME; details: 60 min
# [4] = Pharmacokinetic study in rats after oral administration; format: in vivo, Wistar rats; details: rat
# Experimental: In Vivo Studies. Male Wistar rats (Harlan, Israel), 275-300 g in weight, were used for all surgical procedures. Animals were anesthetized for the period of surgery by intraperitoneal injection of 1 mL/kg of ketamine/xylazine solution (9:1), placed on a heated surface, and maintained at 37° C. (Harvard Apparatus Inc., Holliston, MA). An indwelling cannula was placed in the right jugular vein of each animal for systemic blood sampling, by a method described before. The cannula was tunneled beneath the skin and exteriorized at the dorsal part of the neck. After completion of the surgical procedure, the animals were transferred to cages to recover overnight (12-18 h). During this recovery period, food but not water was deprived. Throughout the experiment, free access to food was available 4 h post oral administration. Animals were randomly assigned to the different experimental groups. […] Dispersed 12P SNEDDS (5 mg/kg) was administered to the animals by oral gavage (n=3). Systemic blood samples (0.35 mL) were taken at 5 min predose, 20, 40, 60, 90, 180, 240, and 360 min postdose. To prevent dehydration, equal volumes of physiological solution were administered to the rats following each withdrawal of blood sample. Plasma was separated by centrifugation (5322 g, 10 min) and stored at −20° C. pending analysis. In the 12P pharmacokinetic study, the parent peptide, 12, was analytically determined.
# Pharmacokinetic Analysis. The area under the plasma concentration-time curve (AUC) was calculated by using the trapezoidal rule with extrapolation to infinity by dividing the last measured concentration by the elimination rate constant (kel). The elimination rate constant values were determined by a linear regression analysis using the last points on the logarithmic plot of the plasma concentration versus the time curve. Pharmacokinetic parameters, such Tmax, Cmax, clearance (CL), volume of distribution (V), and bioavailability, were calculated using noncompartmental analysis.
# Analytical Methods. Plasma or BBMV samples were spiked with metoprolol (1.5 μg/mL) as an internal standard. ACN was added to each sample (2:1) and vortex-mixed for 1 min. The samples were then centrifuged (14 635 g, 10 min), and the supernatant was transferred to fresh glass tubes and evaporated to dryness (Vacuum Evaporation System, Labconco, Kansas City, MO, USA). Then, the glass tubes were reconstituted in 80 μL of mobile phase and centrifuged a second time (14 635 g, 10 min). The amount of the compounds was determined using an HPLC-MS Waters 2695 Separation Module, equipped with a Micromass ZQ detector. The resulting solution was injected (10 μL) into the HPLC system. The system was conditioned as follows: for parent drug peptides (including 12), a Kinetex 2.6 μm HILIC 100 Å, 100 mm×2.1 mm column (Phenomenex, Torrance, CA, USA), an isocratic mobile phase, and an acetonitrile:water:ammonium acetate buffer 50 mM (70:10:20, v/v/v) was used; and for the prodrug peptides (including 12P), a Luna (Phenomenex) 3 μm C8 100 Å, 100 mm×2.0 mm column and an isocratic mobile phase of ACN:water supplemented with 0.1% formic acid (70:30, v/v) and a flow rate of 0.2 mL/min at 25° C. was used. The limit of quantification for all of the peptides and prodrugs was 25 ng/mL.
# The pharmacokinetic in-vivo study allows a further evaluation of the prodrug concept in the whole animal. The PK studies were performed in conscious Wistar male rats. An indwelling cannula was implanted in the jugular vein 24 hours before the PK experiment to allow full recovery of the animals from the surgical procedure. Animals (n=4) received either an IV bolus dose or oral dose of the investigated compound. Blood samples (with heparin, 15 U/ml) were collected at several time points for up to 6 hours post administration and was assayed by HPLC-MS method. Non-compartmental pharmacokinetic analysis was performed using WinNonlin software.
# [5] = in vivo; cited from earlier work
# physchem = details: pH 7.4, LogD, pH 7.4, reported value (mean or bound)
# [6] = oral 5 mg/kg, peptide 12 measured in plasma, 12P given as dispersed 12P SNEDDS
SMILES,Papp A→B [1] [×10⁻⁶ cm/s],"metabolic stability in rat plasma, in words [2]","metabolism by Pooled Human Liver Microsomes, in words [3]","remaining at 1 h, 1 µM (CYP3A4) [%]","concentration remaining after incubation, alone (rat CYP3A4 microsomes; 12P alone) [%]","concentration remaining after incubation, with SNEDDS (rat CYP3A4 microsomes; dispersed 12P SNEDDS) [%]",relative bioavailability vs peptide 12 ([4]; after oral administration),"AUC [4, 6] [µg·min/mL]","Cmax [4, 6] [ng/mL]","F [4, 6] [%]","Kel [4, 6] [min⁻¹]","Tmax, Median (range) [4, 6]",permeability in the PAMPA-GIT model system,half live in man [5] [h],logD at 1 h (physchem),"Papp (AB), replicate 1 (Caco-2 cells)"
"CCCCCCOC(=O)N=C(NCCC[C@@H]1NC(=O)[C@@H](C)N(C)C(=O)[C@H](C)N(C)C(=O)[C@H](C)NC(=O)[C@H](CC(=O)OC)NC(=O)CNC1=O)NC(=O)OCCCCCC [Peptide 12P, c(*aR(Hoc)2GD(OMe)A*A)]",0.785,degraded,substrate for P-gp efflux system and cytochromes P-450,67 ± 3.61,14.0±4.06,102.2±19.7,about 70 fold,216.9 ± 75.6,1993 ± 967,43.8 ± 14.9,0.009 ± 0.0001,20 (20-60) min,–,–,–,–
"CC(C)[C@H]1C(=O)N[C@@H](CCCN=C(N)N)C(=O)NCC(=O)N[C@@H](CC(=O)O)C(=O)N[C@H](Cc2ccccc2)C(=O)N1C [Cilengitide, cyclo(RGDf-(NMe)V)]",–,–,–,–,–,–,–,–,–,–,–,–,low permeability,4,< -1,–
CCCCCCOC(=O)N=C(NCCC[C@H]1NC(=O)[C@H](C(C)C)N(C)C(=O)[C@@H](C)N(C)C(=O)[C@@H](C)NC(=O)[C@@H](CC(=O)OC)NC(=O)CNC1=O)NC(=O)OCCCCCC [#29P*] (cyclo(G[dD](OMe)[dA][dNMeA][NMeV][X1])),–,–,–,–,–,–,–,–,–,–,–,–,> -5,–,–,0.1 10^−6 cm/s
